Experimental data: PMC12373729 (Scientific Reports, 2025)
Entries after “also recorded” stand apart in the source; their conditions may differ. Counter-ions that a name gives are not always drawn. Like-named read-outs stand apart in the source and are kept apart here.

Legend:
[1] = in vitro; conditions: African green monkey
[2] = tested on: SARS-CoV-2; assay: microbe, parasite or virus in culture; format: cell-based
[3] = tested on: Vero E6 cells
[4] = tested on: Vero E6 cells; assay: Cell viability / 50% cytotoxic concentration, EZ-Cytox kit; conditions: Vero E6 cells, 1 nM–100 µM, 2 days of treatment; Table S2
[5] = as above; conditions: African green monkey, CC50, Vero E6 cells
[6] = all patients, clinical settings; cited from earlier work
[7] = tested on: YFV protease; conditions: competitive inhibition; ref Cardoso et al. 43, 44; cited from earlier work
[8] = tested on: SARS-CoV-2 papain-like protease; conditions: cited from earlier work
[9] = tested on: SARS-CoV-2; conditions: cited from earlier work
[10] = tested on: CHIKV nsP2 protease; parameters: method as in Cardoso et al. 43, 44; conditions: ref Cardoso et al. 43, 44; cited from earlier work
[11] = tested on: ZIKV protease; parameters: method as in Cardoso et al. 43, 44; conditions: competitive inhibition; ref Cardoso et al. 43, 44; cited from earlier work
[12] = Severe acute respiratory syndrome coronavirus 2, Vero C1008, Vero E6 cells, MOI 0.01, compound together with virus for 2 h, titers at 48 h, Table S2, '-' = no significant antiviral effect, read-out: IC50
[13] = Vero E6 cells, MOI 0.01, compound together with virus for 2 h, titers at 48 h, Table S2, '-' = no significant antiviral effect, read-out: IC50
[14] = 1 nM–100 µM, 2 days of treatment, Table S2
[15] = Severe acute respiratory syndrome coronavirus 2, Vero C1008, Vero E6 cells, MOI 0.01, treatment during inoculation 2 h, then drug-free 48 h, Fig. 1, read-out: IC50
[16] = Severe acute respiratory syndrome coronavirus 2, Vero C1008, compound added 2 h before inoculation, washed, then infected 2 h, titers 48 h post-infection, '-' = no measurable antiviral effect, read-out: IC50 Pre-infection
[17] = Severe acute respiratory syndrome coronavirus 2, Vero C1008, infected 2 h, washed, then medium containing compound, titers 48 h post-infection, '-' = no measurable antiviral effect, read-out: IC50 Post-infection
[18] = Vero E6 cells, MOI 0.01, treatment during inoculation 2 h, then drug-free 48 h, Fig. 1, read-out: IC50

## N[C@@H](Cc1c[nH]c2ccc(O)cc12)C(=O)O [5-Hydroxy-L-tryptophan (4PQ), 5-hydroxy-L-tryptophan]
[1]
  CC50 at 2 days: > 100 µM
[2]; [12]
  IC50: > 100 µM

## COc1cc2nc(N3CCNCC3)nc(N)c2cc1OC [6,7-dimethoxy-2-(1-piperazinyl)-4-quinazolinamine]
[1]
  CC50 at 2 days: > 100 µM
[2]; [12]
  IC50: > 100 µM

## Nc1ncnc2nc[nH]c12 [Adenine (ADE), adenine]
[1]
  CC50: > 100 µM
[2]; [12]
  IC50: > 100 µM

## C/C1=C2/N[C@H]([C@H](CC(N)=O)[C@@]2(C)CCC(=O)NC[C@@H](C)OP(=O)(O)O[C@H]2[C@@H](O)[C@@H](n3cnc4cc(C)c(C)cc43)O[C@@H]2CO)[C@]2(C)N=C(/C(C)=C3N=C(/C=C4N=C1[C@@H](CCC(N)=O)C\4(C)C)[C@@H](CCC(N)=O)[C@]\3(C)CC(N)=O)[C@@H](CCC(N)=O)[C@]2(C)CC(N)=O.C[C@H]1O[C@@H](n2cnc3c(N)ncnc32)[C@H](O)[C@@H]1O.[Co] [Coenzyme B12 (B1Z), coenzyme B12]
[3]
  CC50: > 100 µM
[2]; [13]
  IC50: > 100 µM

## C/C1=C2/[N-][C@H]([C@H](CC(N)=O)[C@@]2(C)CCC(=O)NC[C@@H](C)OP(=O)([O-])O[C@H]2[C@@H](O)[C@@H](n3cnc4cc(C)c(C)cc43)O[C@@H]2CO)[C@]2(C)N=C(/C(C)=C3N=C(/C=C4N=C1[C@@H](CCC(N)=O)C\4(C)C)[C@@H](CCC(N)=O)[C@]\3(C)CC(N)=O)[C@@H](CCC(N)=O)[C@]2(C)CC(N)=O.[Co+3].[OH-] [Hydroxocobalamin (HPA), hydroxocobalamin]
[4]
  CC50: > 100 µM
[2]; [13]
  IC50: > 100 µM

## O=c1[nH]cnc2nc[nH]c12 [Hypoxanthine (HPA), hypoxanthine]
[5]; [14]
  CC50 at 2 days: > 100 µM
[2]; [12]
  IC50: > 100 µM

## NC[C@@H]1O[C@H](O[C@H]2[C@@H](O)[C@H](O[C@@H]3[C@@H](O)[C@H](N)C[C@H](N)[C@H]3O[C@H]3O[C@H](CN)[C@@H](O)[C@H](O)[C@H]3N)O[C@@H]2CO)[C@H](N)[C@@H](O)[C@@H]1O [Neomycin solution (NMY), neomycin solution]
[4]
  CC50: > 100 µM
[2]; [13]
  IC50: > 100 µM

## CCC(CC)COC(=O)[C@H](C)N[P@](=O)(OC[C@H]1O[C@@](C#N)(c2ccc3c(N)ncnn23)[C@H](O)[C@@H]1O)Oc1ccccc1 [Remdesivir]
[5]; 0–100 μM, Table S3
  CC50 at 2 days: 98.9 µM
[5]; [14]
  CC50 at 2 days: > 100 µM
[6]
  patients with elevated liver enzymes: 35%
[2]; [15]
  IC50: 25.8 µM
[2]; [16]
  IC50: < 6.11 µM
[2]; [17]
  IC50: 3.47 µM
[2]; [18]
  IC50: 25.8 µM

## Nc1ncnc2c1ncn2[C@@H]1O[C@H](CSCC[C@H](N)C(=O)O)[C@@H](O)[C@H]1O [S-Adenosyl-L-homocysteine (SAH), S-adenosyl-l-homocysteine]
[4]
  CC50: > 100 µM
[2]; [13]
  IC50: > 100 µM

## Nc1ncnc2c1ncn2[C@@H]1O[C@@H]2COP(=O)(O)O[C@H]3[C@@H](O)[C@H](n4cnc5c(N)ncnc54)O[C@@H]3COP(=O)(O)O[C@H]2[C@H]1O [c-di-AMP sodium salt (2BA), c-di-AMP sodium salt]
[3]
  CC50: > 100 µM
[2]; [13]
  IC50: > 100 µM

## Nc1nc2c(ncn2[C@@H]2O[C@@H]3COP(=O)(O)O[C@H]4[C@@H](O)[C@H](n5cnc6c(N)ncnc65)O[C@@H]4COP(=O)(O)O[C@H]3[C@H]2O)c(=O)[nH]1 [cGAMP sodium salt]
[4]
  CC50: > 100 µM
[2]; [13]
  IC50: > 100 µM

## Cc1cc2nc3c(=O)[nH]c(=O)nc-3n(C[C@H](O)[C@H](O)[C@H](O)COP(=O)(O)O)c2cc1C [riboflavin 5′-monophosphate sodium salt hydrate]
[3]; African green monkey, 2 days
  CC50: > 100 µM
[1]
  CC50 at 2 days: 98.9 µM
[2]; [12]
  IC50: 59.4 µM
[2]; [16]
  IC50: > 100 µM
[2]; Severe acute respiratory syndrome coronavirus 2, Vero C1008, compound and virus simultaneously for 2 h, washed, titers 48 h post-infection, read-out: IC50 During infection
  IC50: 59.4 µM
[2]; [17]
  IC50: > 100 µM

## Cc1cc2nc3c(=O)[nH]c(=O)nc-3n(C[C@H](O)[C@H](O)[C@H](O)CO)c2cc1C [riboflavin]
[5]; text and Fig. 1 (Fig. 1: 2 h treatment, then drug-free media 48 h)
  CC50 at 2 days: > 100 µM
[7]
  IC50, YFV protease: medium micromolar range
[8]
  concentration inhibiting SARS-CoV-2 papain-like protease in vitro: > 50 µM
[8]; high concentrations, ref 2 (supplement)
  concentration inhibiting viral papain-like protease (PLpro): > 50 µM
[9]
  effect on viral replication in cellular models: fails to block viral replication
[10]
  activity against CHIKV nsP2 protease: potent activity
[2]; [15]
  IC50: 59.4 µM
[2]; Vero E6 cells, 2 h post-infection, in words
  antiviral effect, treatment post-infection: no measurable antiviral effects; also recorded: no effect
[2]; Vero E6 cells, 2 h prior to infection, in words
  antiviral effect, treatment prior to infection: no measurable antiviral effects; also recorded: no effect
[2]; [18]
  IC50: 59.4 µM
[2]; Vero E6 cells, in words
  antiviral effect, treatment during viral inoculation: significant inhibition; also recorded: significantly reduced viral replication
[2]; drug-containing media for 48 h, Supplementary Fig. S1, in words
  effect on viral replication when added to the culture medium after viral inoculation: additional inhibitory effects on viral replication were observed
[11]
  IC50, ZIKV protease: medium micromolar range
